Like-named read-outs stand apart in the source and are kept apart here.
Test system: Bloodstream form T. b. brucei (Lister 427)
Experiment: Trypanosoma brucei brucei Alamar Blue assay
Type: cell-based
Procedure: IC50 values against trypanosomes were determined by Alamar Blue assay. […] After this time, 20 μL of resazurin dye (Sigma–Aldrich) solution at 0.49 mM was added. […] Output was plotted using the IC50 determination algorithm of Prism 5.0 software (GraphPad). Three independent experiments were carried out in duplicate for each compound.

[1] = Trypanosoma brucei, Table 1, Alamar Blue, 48 h + 24 h, all standard deviations less than 2%, read-out: IC50 against Trypanosoma brucei brucei
[2] = Trypanosoma brucei, Table S2 (supplement), T. b. brucei activity, read-out: IC50
[3] = Trypanosoma brucei, values in μM, read-out: IC50 against T. b. brucei
[4] = Table 1, Alamar Blue, 48 h + 24 h, all standard deviations less than 2%, read-out: IC50 against Trypanosoma brucei brucei

Row | Molecule | IC50 [1] | further results
1 | Cn1cc(NC(=O)c2cc(NC(=O)c3cc4ccccc4cn3)cn2C)cc1C(=O)NCCN1CCOCC1 [Compound 14, N-[1-Methyl-5-({[1-methyl-5-({[2-(4-morpholinyl)ethyl]amino}carbonyl)-1H-pyrrol-3-yl]amino}carbonyl)-1H-pyrrol-3-yl]-3-isoquinolinecarboxamide] | 0.97 µM | IC50 [2]: 0.21 µM
2 | COc1ccc(/C=C/c2ccc3cc(C(=O)Nc4cc(C(=O)Nc5cc(C(=O)NCCN6CCOCC6)n(C)c5)n(C)c4)ccc3n2)cc1 [Compound 30, 2-[(E)-2-(4-Methoxyphenyl)ethenyl]-N-[1-methyl-5-({[1-methyl-5-({[2-(4-morpholinyl)ethyl]amino}carbonyl)-1H-pyrrol-3-yl]amino}carbonyl)-1H-pyrrol-3-yl]-6-quinolinecarboxamide] | 0.63 µM | –
3 | COc1cccc(C(=N)Nc2cc(C(=O)Nc3cc(C(=O)Nc4cc(C(=O)NCCCN5CCOCC5)n(C)c4)n(C)c3)n(C)c2)c1 [Compound 9, 4-{[(4-{[imino(3-methoxyphenyl)methyl]amino}-1-methyl-1H-pyrrol-2-yl)carbonyl]amino}-1-methyl-N-[1-methyl-5-({[3-(4-morpholinyl)propyl]amino}carbonyl)-1H-pyrrol-3-yl]-1H-pyrrole-2-carboxamide] | > 75 µM | IC50 [3]: > 75 µM
4 | Cn1cc(NC(=O)c2cc(NC(=O)c3ccc(/C=C/c4ccncc4)cc3)cn2C)cc1C(=O)NCCN1CCOCC1 [Compound 24, 1-Methyl-N-[1-methyl-5-({[2-(4-morpholinyl)ethyl]amino}carbonyl)-1H-pyrrol-3-yl]-4-({4-[(E)-2-(4-pyridinyl)ethenyl]benzoyl}amino)-1H-pyrrole-2-carboxamide] | 0.38 µM | –
5 | Cn1cc(NC(=O)c2cc(NC(=O)c3ccc(/C=C/c4ccc(C(F)(F)F)cc4)cc3)cn2C)cc1C(=O)NCCN1CCOCC1 [Compound 22, 1-methyl-N-[1-methyl-5-({[2-(4-morpholinyl)ethyl]amino}carbonyl)-1H-pyrrol-3-yl]-4-[(4-{(E)-2-[4-(trifluoromethyl)phenyl]ethenyl}benzoyl)amino]-1H-pyrrole-2-carboxamide] | 0.73 µM | –
6 | CSc1ccc(/C=C/c2ccc3cc(C(=O)Nc4cc(C(=O)Nc5cc(C(=O)NCCN6CCOCC6)n(C)c5)n(C)c4)ccc3n2)cc1 [Compound 31, N-[1-methyl-5-({[1-methyl-5-({[2-(4-morpholinyl)ethyl]amino}carbonyl)-1H-pyrrol-3-yl]amino}carbonyl)-1H-pyrrol-3-yl]-2-{(E)-2-[4-(methylsulfanyl)phenyl]ethenyl}-6-quinolinecarboxamide] | 5 µM | –
7 | Cn1cc(NC(=O)c2cc(NC(=O)c3cc(NC(=O)c4ccc(Cl)cc4Cl)cn3C)cn2C)cc1C(=O)NCCCN1CCOCC1 [Compound 25, 4-[(2,4-Dichlorobenzoyl)amino]-1-methyl-N-[1-methyl-5-({[1-methyl-5-({[3-(4-morpholinyl)propyl]amino}carbonyl)-1H-pyrrol-3-yl]amino}carbonyl)-1H-pyrrol-3-yl]-1H-pyrrole-2-carboxamide] | 2.3 µM | IC50 [2]: 0.79 µM
8 | CC(C)n1cc(NC(=O)c2cc(NC(=O)c3cnc(Cl)c(Cl)c3)cn2C)cc1C(=O)Nc1cc(C(=O)NCCCN(C)C)n(C)c1 [Compound 6, 5,6-Dichloro-N-[5-({[5-({[5-({[3-(dimethylamino)propyl]amino}carbonyl)-1-methyl-1H-pyrrol-3-yl]amino}carbonyl)-1-isopropyl-1H-pyrrol-3-yl]amino}carbonyl)-1-methyl-1H-pyrrol-3-yl]nicotinamide] | 4 µM | –
9 | Cn1cc(NC(=O)c2cc(NC(=O)c3ccc(/C=C/c4nc5ccccc5o4)cc3)cn2C)cc1C(=O)NCCN1CCOCC1 [Compound 16, 4-({4-[(E)-2-(1,3-benzoxazol-2-yl)ethenyl]benzoyl}amino)-1-methyl-N-[1-methyl-5-({[2-(4-morpholinyl)ethyl]amino}carbonyl)-1H-pyrrol-3-yl]-1H-pyrrole-2-carboxamide] | 0.79 µM | IC50 [2]: 2.2 µM
10 | CN(C)CCCNC(=O)c1cc(NC(=O)c2cc(NC(=O)c3cc(NC(=N)c4cc5ccccc5cn4)cn3C)cn2C)cn1C [Compound 17, N-[5-({[3-(dimethylamino)propyl]amino}carbonyl)-1-methyl-1H-pyrrol-3-yl]-4-{[(4-{[imino(3-isoquinolinyl)methyl]amino}-1-methyl-1H-pyrrol-2-yl)carbonyl]amino}-1-methyl-1H-pyrrole-2-carboxamide] | 4.9 µM | –
11 | CN(C)CCCNC(=O)c1cc(NC(=O)c2cc(NC(=O)c3cc(NC(=N)c4ccccc4)cn3C)cn2C)cn1C [Compound 1, N-[5-({[5-({[3-(Dimethylamino)propyl]amino}carbonyl)-1-methyl-1H-pyrrol-3-yl]amino}carbonyl)-1-methyl-1H-pyrrol-3-yl]-4-{[imino(phenyl)methyl]amino}-1-methyl-1H-pyrrole-2-carboxamide] | > 75 µM | IC50 [3]: > 75 µM
12 | COc1cccc(C(=N)Nc2cc(C(=O)Nc3cc(C(=O)Nc4cc(C(=O)NCCCN(C)C)n(C)c4)n(C(C)C)c3)n(C)c2)c1 [Compound 7, N-[5-({[5-({[3-(Dimethylamino)propyl]amino}carbonyl)-1-methyl-1H-pyrrol-3-yl]amino}carbonyl)-1-isopropyl-1H-pyrrol-3-yl]-4-{[imino(3-methoxyphenyl)methyl]amino}-1-methyl-1H-pyrrole-2-carboxamide] | 27 µM | –
13 | COc1cccc(/C=C/c2cccc(C(=O)Nc3cc(C(=O)Nc4nc(C(=O)NCCCN(C)C)c(CCC(C)C)s4)n(C)c3)c2)c1 [Compound 12, N-[3-(Dimethylamino)propyl]-5-isopentyl-2-({[4-({3-[(E)-2-(3-methoxyphenyl)ethenyl]benzoyl}amino)-1-methyl-1H-pyrrol-2-yl]carbonyl}amino)-1,3-thiazole-4-carboxamide] | 0.18 µM | IC50 [2]: 0.28 µM
14 | N=C(N)c1ccc(/N=N/Nc2ccc(C(=N)N)cc2)cc1 [Diminazene, diminazene, reference compound] | – | IC50 (Trypanosoma brucei, values given in nM, read-out: IC50 against T. b. brucei): 0.005 µM
15 | 4-(Formylamino)-1-methyl-N-[1-methyl-5-({[1-methyl-5-({[2-(4-morpholinyl)ethyl]amino}carbonyl)-1H-pyrrol-3-yl]amino}carbonyl)-1H-pyrrol-3-yl]-1H-pyrrole-2-carboxamide [Compound 4] | – | IC50 [4]: 48 µM
16 | 2-{[(4-{[(4-{[Imino(4-methoxy-2-pyridinyl)methyl]amino}-1-methyl-1H-pyrrol-2-yl)carbonyl]amino}-1-methyl-1H-pyrrol-2-yl)carbonyl]amino}-5-isopropyl-N-[2-(4-morpholinyl)ethyl]-1,3-thiazole-4-carboxamide [Compound 5] | – | IC50 [4]: > 75 µM; IC50 (values in μM, read-out: IC50 against T. b. brucei): > 75 µM
17 | Cn1cc(NC(=O)c2cc(NC(=O)c3ccc(/C=C/c4ccc(F)cc4)cc3)cn2C)cc1C(=O)NCCN1CCOCC1 [Compound 26, 4-({4-[(E)-2-(4-fluorophenyl)ethenyl]benzoyl}amino)-1-methyl-N-[1-methyl-5-({[2-(4-morpholinyl)ethyl]amino}carbonyl)-1H-pyrrol-3-yl]-1H-pyrrole-2-carboxamide] | 0.71 µM | –
18 | CN(C)CCCNC(=O)c1cc(NC(=O)c2cc(NC(=O)c3cc4ccccc4cn3)cn2C)cn1C [Compound 15, N-[5-({[5-({[3-(Dimethylamino)propyl]amino}carbonyl)-1-methyl-1H-pyrrol-3-yl]amino}carbonyl)-1-methyl-1H-pyrrol-3-yl]-3-isoquinolinecarboxamide] | 2.2 µM | IC50 [2]: 0.97 µM
